Entries after “also recorded” stand apart in the source; their conditions may differ.
Assays:
[1] = tested on: human neuroblastoma NB69 cells; experiment: Staurosporine-induced neuronal death in NB69 cells, viable cell count; type: cell-based; conditions: 200 nM staurosporine, viability 24 hr after exposure; 25 μM Ag1 in NB69 wt, or stable expression in NB69-Gas1 cells
Protocol: Columns 1 and 2. […] Columns 3 and 4. The viability was analyzed 24 hr after exposure to staurosporine (200 nM) in all the cases. Results are expressed as mean +/−SEM. Statistical analysis was performed by Student's t-test. *** denotes […], and other treatment groups were statistically non-significant (p<0.5).
Staurosporine-induced neuronal death was assayed in human neuroblastoma NB69 cells cultured in DMEM/HAM F12 medium supplemented with 10% fetal calf serum, 2 mM glutamine and 50 μg/ml gentamycin. Wild-type or stably transfected NB69 cells (2×10^4 cells/35 mm dish) were exposed to […] staurosporine (RBI). Phase-bright cells without signs of membrane or neurite degeneration were counted 24 hr later. Experiments were done in triplicate and repeated as least five times. Stably transfected NB69 cells that overexpress Gas1 in the […] orientation (NB69-Gas1) were prepared by the calcium phosphate precipitation method followed by two weeks of geneticin selection. Control cells were prepared in parallel by transfection with pCDNA3 vector alone (NB69-vector). Expression of the constructs in the cell clones were analyzed by northern blot analysis, and the clones having the highest expression were chosen for the experiments. Stable tranfectants were kept in the presence of 0.3 mg/ml of geneticin, which was removed before plating for the experiments.

[2] = tested on: cortico-hippocampal cultures; experiment: NMDA-induced neuronal death (excitotoxicity) in cortico-hippocampal cultures, viability by vital staining; type: cell-based, rat; parameters: survival: dose or concentration left out as unconfirmed
Protocol: The viability of mature cortico-hippocampal cultures was analyzed 24 hr after […] NMDA exposure. Pretreatment with the different antisense oligonucleotides at the indicated concentrations was done 24 hr before the exposure to NMDA. Results are expressed as mean +/−SEM. Statistical analysis was performed by Student's t-test. *** denotes […], and other treatment groups were statistically non-significant (p<0.5).
NMDA-induced excitotoxicity was analyzed in cortico-hippocampal cultures maintained for 12-14 DIV similar to those already described in Example 1. To apply the excitotoxic insult, the cultures were rinsed twice with Locke's solution without Mg2+ and exposed to […] NMDA (Sigma) for 5 min. in the same Locke's solution or to Locke's solution alone as control. NMDA was washed out, the Mg2+ concentration was restored by 2 changes of Locke's +Mg2+ solution, and the original medium was replaced. Phase-bright bipolar cells, taken to represent living neurons, were counted 24 hr after the NMDA exposure. Alternatively, the vital staining method (Jones and Senft, 1985 An improved method to determine cell viability by simultaneous staining with fluorescein diacetate-propidium iodide. J Histochem Cytochem 33:77-79) was used to assess the extent of neuronal death and the protection by antisense oligonucleotide treatments. Similar results were obtained using either method. […]

Gas1 expression = Gas1 expression in brain after intraperitoneal kainic acid (Northern blot); type: in vivo, rat; conditions: 10 mg/kg intraperitoneal; hippocampus and olfactory cortex
Protocol: Already detectable induced Gas1 mRNA levels after kainic acid appear 6 hours after the beginning of treatment and were maintained for at least 10 days. In order to reveal Gas1 induction and to confirm neurone localization thereof in situ hybridization after administering kainic acid was performed. […] Similar results were observed after provoking an experimental ischemic process in gerbil brain by transient occlusion of both carotids, giving rise to rapid degeneration of a numerous population of pyramidal neurons of the CA1 layer of the hippocampus. It was observed that this massive neuron death was preceded by a significant rise of Gas1 mRNA and Gas1 protein levels (evaluated by immunocytochemistry) in those neurons. Likewise, it was also observed that neuron loss in all the cerebral cortex that is produced in rats in the perinatal period after exposure to ionizing radiation is preceded by high induction of Gas1 mRNA.

[3] = Channel formation of purified Gas1 protein in artificial bilayers; type: biochemical; conditions: purified protein expressed in bacteria (pTrcHis)
From the text: Initially, Gas1 expression has been related to the G0 phase of cell cycle arrest in rat fibroblasts deprived of serum (Del Sal et al., 1992). […] Up to now it had been described that Gas1 protein was a cell membrane protein and as of its amino acid sequence the presence of two transmembrane segments had been proposed and a hypothetical RGD domain that may interact with integrin, the only domain described that relates its structure to its arrest function of the cell cycle (Schneider et al.). The present inventors have succeeded in overexpressing the Gas1 protein by means of a prokaryotic vector (pTrcHis) in bacteria for subsequent purification in sufficient amounts to carry out protein studies. […] Aside from the already described location of this protein in the cell membrane we have located the presence of Gas1 in the perinuclear and mitochondrial membrane. It must be pointed out that Bcl-2 and Bax, proteins related to the […], are also located in the mitochondrial membrane and are capable of forming ionic channels. This common location of these proteins makes compatible a possible functional interaction of Gas1 with Bax type proapoptotic proteins and Bcl-2 and Bcl XL antiapoptotic proteins.

## 5′-TCCTCATCCATCCAT-3′ (DNA, linkages s2 o10 s2 (s phosphorothioate, o phosphodiester), methylation of C not given here) [AG1, 15-mer Gas1 antisense oligonucleotide spanning the start site of translation, protected at each end by two phosphorothioate groups]
[1]
  effect on staurosporine-induced reduction in survival: prevents the reduction in survival; also recorded: total blocking
[2]; 25 μM Ag1, pretreatment 24 hr before 500 mM NMDA, viability 24 hr after exposure
  effect on NMDA-induced neuronal death: blocks NMDA-induced neuronal death
[2]; NMDA induced neuron death in primary neuron cultures, FIG. 2a
  survival: ~100%

## C=C(C)[C@H]1CN[C@H](C(=O)O)[C@H]1CC(=O)O [kainic acid]
Gas1 expression
  induction of Gas1 expression: strong induction

B1: Gas1 protein: purified Gas1 protein overexpressed by a prokaryotic vector (pTrcHis) in bacteria (protein)
chain: LAHGRRLICWQALLQCQGEPECSYAYNQYAEACAPVLAQHGGGDAPGAAAAAFPASAASFSSRWRCPSHCISALIQLNHTRRGPALEDCDCAQDENCKSTKRAIEPCLPRTSGGGAGGPGAGGVMGCTEARRRCDRDSRCNLALSRYLTYCGKVFNGLRCTDECRTVIEDMLAMPKAALLNDCVCDGLERPICESVKENMARLCFGAELGNGPGSSGSDGGLDDYYDEDYDDEQRTGGAGGEQPLDDDDGVPHPPRPGSGAAASGGRGDLPYGPGRRS
[3]
  channel formation: capable of inserting in and forming cationic channels
